For one data set, the target named is T1, murine CD22 (Mus musculus, UniProt P35329).
T1 sequence (P35329 22-868): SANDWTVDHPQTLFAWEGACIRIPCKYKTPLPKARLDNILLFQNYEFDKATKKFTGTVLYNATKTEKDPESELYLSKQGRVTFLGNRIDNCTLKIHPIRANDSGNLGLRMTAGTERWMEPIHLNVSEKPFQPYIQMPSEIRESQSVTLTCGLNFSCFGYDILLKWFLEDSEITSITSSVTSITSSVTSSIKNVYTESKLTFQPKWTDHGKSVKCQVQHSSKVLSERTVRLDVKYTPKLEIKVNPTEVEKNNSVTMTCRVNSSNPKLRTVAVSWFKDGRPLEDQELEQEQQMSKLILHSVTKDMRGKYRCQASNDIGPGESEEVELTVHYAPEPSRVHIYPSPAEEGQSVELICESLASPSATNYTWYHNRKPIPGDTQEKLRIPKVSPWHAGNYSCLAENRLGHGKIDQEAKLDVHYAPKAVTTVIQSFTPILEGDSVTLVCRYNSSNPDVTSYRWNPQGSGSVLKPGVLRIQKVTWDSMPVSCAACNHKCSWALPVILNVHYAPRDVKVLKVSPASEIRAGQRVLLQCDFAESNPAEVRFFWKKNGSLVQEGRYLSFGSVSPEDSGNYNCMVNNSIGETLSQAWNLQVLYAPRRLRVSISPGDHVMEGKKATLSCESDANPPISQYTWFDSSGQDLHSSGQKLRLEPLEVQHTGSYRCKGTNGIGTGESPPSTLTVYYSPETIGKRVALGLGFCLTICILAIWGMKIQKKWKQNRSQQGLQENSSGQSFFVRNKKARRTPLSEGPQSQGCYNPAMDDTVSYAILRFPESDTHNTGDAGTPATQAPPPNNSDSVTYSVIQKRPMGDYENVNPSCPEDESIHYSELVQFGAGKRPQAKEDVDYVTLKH
To be noted: cited from earlier work.

Data set [1] has as its system human polymorphonuclear leukocyte (PMN) trans-endothelial migration. To be noted: equipotent to resolvin D1; read-out: EC50 of reduction of PMN trans-endothelial migration; cited from earlier work.
The test system of the next data set is leukocyte infiltration. As to conditions: 100 ng dose; cited from earlier work.
Another data set deals with phagocytes. As to conditions: cited from earlier work; for maximal migration of phagocytes (increase): at about 100 nM; for concentration effecting maximal migration of phagocytes: transwell migration assay.
For a further data set, the target named is P2Y2 (Homo sapiens, UniProt P41231). As to conditions: read-out: EC50 for activation of P2Y2; cited from earlier work.
Chain of P2Y2 (P41231 whole entry, species assumed): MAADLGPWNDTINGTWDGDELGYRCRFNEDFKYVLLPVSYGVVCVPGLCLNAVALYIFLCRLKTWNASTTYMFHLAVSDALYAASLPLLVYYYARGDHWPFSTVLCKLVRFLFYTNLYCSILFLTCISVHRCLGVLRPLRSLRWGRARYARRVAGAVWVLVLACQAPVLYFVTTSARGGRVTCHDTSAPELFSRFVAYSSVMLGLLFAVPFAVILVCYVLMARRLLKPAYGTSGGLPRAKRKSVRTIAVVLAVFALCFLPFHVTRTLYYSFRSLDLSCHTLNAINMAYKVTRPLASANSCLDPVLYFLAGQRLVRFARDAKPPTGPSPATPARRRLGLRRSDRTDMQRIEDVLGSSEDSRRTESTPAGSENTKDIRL
In the next data set the target is T2, P2X7 (Homo sapiens, UniProt Q99572).
T2 sequence (Q99572 1-595): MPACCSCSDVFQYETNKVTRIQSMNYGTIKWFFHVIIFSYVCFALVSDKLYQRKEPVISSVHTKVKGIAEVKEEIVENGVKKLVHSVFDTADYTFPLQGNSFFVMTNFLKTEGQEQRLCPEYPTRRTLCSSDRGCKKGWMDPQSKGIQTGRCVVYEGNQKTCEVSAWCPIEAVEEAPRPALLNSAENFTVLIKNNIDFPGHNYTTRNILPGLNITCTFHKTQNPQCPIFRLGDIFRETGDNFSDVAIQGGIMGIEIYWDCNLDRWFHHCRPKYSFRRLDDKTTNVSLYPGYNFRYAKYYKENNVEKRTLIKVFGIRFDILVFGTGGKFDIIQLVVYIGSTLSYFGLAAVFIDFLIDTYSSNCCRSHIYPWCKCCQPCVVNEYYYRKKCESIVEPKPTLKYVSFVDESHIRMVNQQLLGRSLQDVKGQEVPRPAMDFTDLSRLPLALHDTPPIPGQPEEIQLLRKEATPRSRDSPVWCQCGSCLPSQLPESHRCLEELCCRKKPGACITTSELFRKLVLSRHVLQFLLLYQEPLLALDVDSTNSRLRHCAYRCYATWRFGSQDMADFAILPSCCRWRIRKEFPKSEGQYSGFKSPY
To be noted: read-out: EC50 for activation of P2X7; cited from earlier work.

Data set [2] is described as follows: In vitro release of ATP from PLGA-PEG-PLGA hydrogels. Format: physicochemical. How it is done: An aliquot of 20 μl of a 10 mM solution of ATP is combined with 160 μl of 25% gel solution of Example 4.1 and 20 μl of 10×PBS (final concentration of ATP is 1 mM). The mixture is incubated for 2 minutes at 37° C. to induce gelling and overlayed with 1 ml of 1×PBS. At frequent timepoints the supernatant is removed by pipetting and stored at 4° C. The removed supernatant is replaced by fresh 1 ml of 1×PBS. After 48 hours the samples are measured spectrometrically at 260 nm and the amount of released ATP is calculated as percentage of a reference sample containing a concentration of ATP equaling 100% release.

For data set [3] the following is noted: cited from earlier work.
Data set [4] can be described thus: Release of DexP from PLGA-PEG-PLGA hydrogels. Format: physicochemical. The method, then:
The biodegradable PLGA-PEG-PLGA triblock polymer used in this example has a PLG/PEG weight ratio of 2.3 (70/30), and a lactide/glycolide molar ratio of approx. 15/1. Synthesis of the triblock copolymer is performed as described in Example 2.1. A 20 mM stock solution of DexP in PBS (10.3 mg/ml; MW 516.4; Sigma-Aldrich) is diluted 1:40 in PBS (final concentration: 0.5 mM), and 20 μl of the diluted stock solution is combined with 160 μl of 25% gel solution and 20 μl of 10×PBS (final concentration of DexP: 0.05 mM).
The mixture of 5.2.1 is incubated for 2 minutes at 37° C. to induce gelling and overlayed with 200 μl of 1×PBS. At frequent time points the supernatant is removed by pipetting and stored at 4° C. The removed supernatant is replaced by fresh 200 μl of 1×PBS. Controls of the same concentration of DexP in 1×PBS without gel are incubated and sampled in parallel.
Released DexP is determined with a spectrophotometric method (Singh and Verma, 2008). The method involves oxidation of the corticosteroid by iron (III) and subsequent complexation of iron (II) with potassium hexacynoferate (III), forming a bluish green coloured complex with maximum absorbance at 780 nm (Beer's law range: 10-50 μg/ml; molar absorptivity (M^−1cm^−1): for DexP 0.55×10^4).

The test system of a further data set is rheumatoid arthritis. To be noted: 2 μg/day for 3 months, cited from earlier work.
The conditions of data set [5]: cited from earlier work. The source holds these as a separate data set.
For data set [6] the following is noted: rodents; cited from earlier work.
For data set [7] the following is noted: cited from earlier work. The source holds these as a separate data set.
The subject of another data set is calcium metabolism. To be noted: compared to 1,25-(OH)2D3; cited from earlier work.
For data set [8] the following is noted: cited from earlier work. The source holds these as a separate data set.
The conditions of data set [9]: rats; cited from earlier work.
The conditions of data set [10]: in vivo; cited from earlier work.
The conditions of data set [11]: cited from earlier work. The source holds these as a separate data set.
Data set [12] deals with TNFR1-mediated activation of NF-κB. To be noted: high concentrations; cited from earlier work.
A further data set concerns type 1 diabetes. To be noted: cited from earlier work.

Read-outs that look alike come from different tables or passages of the source. A value given as a limit tells only on which side of the number the result lay.

For “9-biphenylacetyl-N-glycolylneuraminic acid-α2-6-galactose-β1-4-N-acetylglucosamine-β-ethylamine [6′-^BPANeuGc]”, the “affinity for murine CD22, fold higher than natural ligand NeuGcα2-6Galβ1-4GlcNAc-β-ethylamine” value on murine CD22 was 200 fold.

As for `CC/C=C\C[C@@H](O)/C=C/C=C\C=C\C=C\[C@@H](O)[C@@H](O)C/C=C\CCC(=O)O` [17(R)-Resolvin D1], the EC50 in data set [1] is around 30 nM. Besides, the “maximal inhibition of leukocyte infiltration” value in the data set with leukocyte infiltration is listed as around 35%.

For `Nc1ncnc2c1ncn2[C@@H]1O[C@H](COP(=O)(O)OP(=O)(O)OP(=O)(O)O)[C@@H](O)[C@H]1O` [ATP], in the data set on phagocytes, the “maximal migration of phagocytes (increase)” value is on record as “threefold increase”. Also, in the data set on phagocytes, the “concentration effecting maximal migration of phagocytes” value is “about 100 nM”. Besides, the EC50 at P2Y2 is below 1000 nM; on P2X7, above 100000 nM. The “hydrogel-embedded ATP released” value in [2] (after 48 hours) is reported as “approx. 75%”; in [2] (within the first 5 hours (initial burst)), “approx. 50%”. Also, the “further hydrogel-embedded ATP released” value in [2] (another, within the next 20 hours) was found to be 10%.

Regarding `C[C@@H]1C[C@H]2[C@@H]3CCC4=CC(=O)C=C[C@]4(C)[C@@]3(F)[C@@H](O)C[C@]2(C)[C@@]1(O)C(=O)COP(=O)(O)O` [DexP, dexamethasone sodium phosphate], the “solubility in PBS” value in data set [3] (PBS) is listed as “at least 25 mg/ml”. For the same compound, in data set [3] (pH 6.7), the “solubility in 10 mM HEPES and 135 mM NaCl, pH 6.7” value is given as “at least 50 mg/ml”. For the same compound, the solubility in water in data set [3] (water, product information) is 50 mg/mL. Besides, the “hydrogel-embedded DexP released” value is 80-90% in data set [4] (after 2 days) and 30-50% in data set [4] (within the first 6 hours).

Consider `O=c1ccn([C@@H]2O[C@H](COP(=O)(O)OP(=O)(O)OP(=O)(O)O)[C@@H](O)[C@H]2O)c(=O)[nH]1` [UTP], for which, in the data set on phagocytes, the “maximal migration of phagocytes (increase)” value was “threefold increase” and the “concentration effecting maximal migration of phagocytes” value is on record as “about 100 nM”.

With `C=C1/C(=C\C=C2/CCC[C@]3(C)[C@@H]([C@H](C)CCCC(C)C)CC[C@@H]23)C[C@@H](O)C[C@@H]1O` [alfacalcidiol], in the data set on rheumatoid arthritis (on methotrexate), the “patients with improvement of disease activity” value is 89%. In addition, in the data set on rheumatoid arthritis, the “patients going into remission” value is recorded as 45%.

Regarding `C=C1CC[C@H](O)C/C1=C/C=C1\CCC[C@]2(C)[C@@H]([C@H](C)CCCC(C)(C)O)CC[C@@H]12` [calcidiol, 25-hydroxyvitamin D3], in data set [5] (Jones (2008)), the “plasma calcidiol concentration producing vitamin D toxicity” value was “above 0.75 μM”. Also, the “calcidiol level at which toxicity occurs” value in data set [5] (Shephard and DeLuca (1980)) was at least 500 ng/mL. In data set [6], the “plasma calcidiol concentration tolerated with normocalcemia” value is 250 to 1000 nM.

On to `C=C1/C(=C\C=C2/CCC[C@]3(C)[C@@H]([C@H](C)/C=C/[C@@H](O)C4CC4)CC[C@@H]23)C[C@@H](O)C[C@@H]1O` [calcipotriol], for which the “rate of clearance, times higher than for 1,25-(OH)2D3” value in data set [7] (compared to 1,25-(OH)2D3 / calcitriol) is given as “approximately 140 times”. The results for the “detectable in serum by HPLC up to” value in [7] (i.v. injection of 10 μg/kg in rats) and in data set [7] (i.v. injection of 50 μg/kg in rats) were “up to 5 min” and “up to 10 min”, respectively. The “effect on calcium metabolism, times less than 1,25-(OH)2D3 (calcitriol)” value with calcium metabolism is listed as 100-200 times. For the same compound, the “applied dose absorbed systemically” value in [8] (applied to normal skin) is 5%; in [8] (ointment applied topically to psoriasis plaques), “approximately 6%”. Besides, in [9], the “single s.c. dose up to which no death occurred” value was at most 540 μg/kg body weight.

Take `C[C@]12CCC(=O)C=C1CC[C@@H]1[C@@H]2C(=O)C[C@@]2(C)[C@H]1CC[C@]2(O)C(=O)CO` [cortisone]: the “glucocorticoid potency (in words)” value in data set [10] is “rather low potency”.

Consider `C[C@@H]1C[C@H]2[C@@H]3CCC4=CC(=O)C=C[C@]4(C)[C@@]3(F)[C@@H](O)C[C@]2(C)[C@@]1(O)C(=O)CO` [dexamethasone], for which the figures for the “plasma concentration of Dex” value in data set [11] (after 6 weeks (day 42)) and in data set [11] (around day 7 after i.v. 200 mg/day on three alternating days) were 1 nM and 100 to 1000 nM, respectively.

In the case of `C[C@]12CCC(=O)C=C1CC[C@@H]1[C@@H]2[C@@H](O)C[C@@]2(C)[C@H]1CC[C@]2(O)C(=O)CO` [hydrocortisone], the “glucocorticoid potency (in words)” value in data set [10] is recorded as “rather low potency”.

For the compound `C[C@]12C=CC(=O)C=C1CC[C@@H]1[C@@H]2[C@@H](O)C[C@@]2(C)[C@H]1CC[C@]2(O)C(=O)CO` [prednisolone], the “glucocorticoid potency (in words)” value in data set [10] was “intermediate potency”.

For `O=C([O-])c1ccccc1O.[Na+]` [sodium salicylate], the “concentration inhibiting TNFR1-mediated activation of NF-κB” value in [12] is 10 to 20 mM.

Consider `C[C@]12C=CC(=O)C=C1CC[C@H]1[C@@H]3C[C@@H](O)[C@](O)(C(=O)CO)[C@@]3(C)C[C@H](O)[C@@]12F` [triamcinolone], for which the “glucocorticoid potency (in words)” value in data set [10] is “intermediate potency”.

On to vitamin D, for which the “relative risk of type 1 diabetes” value in the data set on type 1 diabetes (doses of exactly 50 μg/day) is recorded as 0.22; in the data set on type 1 diabetes (doses of over 50 μg/day (2000 IU/d) during infancy, subsequent 30 years), 0.14. Besides, the “odds ratio of risk for T1D by age 15” value in the data set with type 1 diabetes (supplemented vs unsupplemented children) is 0.67.
